Test results published in US9499550B2 (BRISTOL-MYERS SQUIBB COMPANY, priority 2012, dated 2016).
Like-named read-outs stand apart in the source and are kept apart here.

Key:
[1] = tested on: HCV genotype 1a (H77 strain) replicon in HUH-7 cells; assay: HCV replicon luciferase reporter assay, genotype 1a; format: cell-based; conditions: Hepatitis C virus, Huh-7, 72 h, 3 days incubation
Procedure, shortened: (§1)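 Replicon inhibition for both genotypes was measured as Renilla luciferase signal (EnduRen, 7.5 μM final, 2 h) after 3-day, 37° C exposure of replicon-bearing HUH-7 cells in 4% FCS DMEM, 0.5% DMSO. The 1b construct carries S1179I; the 1a H77 construct carries P1496L and S2204I. Twenty-point, 3-fold dilutions were fitted four-parametrically for EC50, and CC50 was taken from multiplexed Cell Titer-Blue.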

[2] = tested on: HCV genotype 1b (Con1) replicon in HUH-7 cells; assay: HCV replicon luciferase reporter assay, genotype 1b; format: cell-based; conditions: Hepatitis C virus, Huh-7, 72 h, 3 days incubation
Procedure, shortened: as §1

[3] = HCV genotype 1a replicon luciferase, read-out: LE_1a (EC50, range)
[4] = HCV genotype 1b replicon luciferase, read-out: LE_1b (EC50, range)
[5] = HCV genotype 1a replicon luciferase assay, range class, read-out: LE_1a (EC50, range)
[6] = HCV genotype 1b replicon luciferase assay, range class, read-out: LE_1b (EC50, range)
[7] = HCV genotype 1a replicon luciferase, read-out: LE_1a (EC50)
[8] = HCV genotype 1b replicon luciferase, read-out: LE_1b (EC50)

SMILES: CC[C@@H]1C[C@H](C)CC/C=C\[C@@H]2C[C@@]2(C(=O)NS(=O)(=O)C2(C)CC2)NC(=O)[C@@H]2C[C@@H](Oc3nccc4cc(OC)c(Cl)cc34)CN2C(=O)[C@H]1NC(=O)OC(C)(C)C(C)(F)F [Compound 3224, 3,3-difluoro-2-methylbutan-2-yl((2R,6S,7R,9R,13aS,14aR,16aS,Z)-2-((7-chloro-6-methoxyisoquinolin-1-yl)oxy)-7-ethyl-9-methyl-14a-(((1-methylcyclopropyl)sulfonyl)carbamoyl)-5,16-dioxo-1,2,3,5,6,7,8,9,10,11,13a,14,14a,15,16,16a-hexadecahydrocyclopropa[e]pyrrolo[1,2-a][1,4]diazacyclopentadecin-6-yl)carbamate]
- EC50 [1, 3]: 1.01 to 5 nM
- EC50 [2, 4]: 1.01 to 5 nM

SMILES: COc1ccc2c(O[C@@H]3C[C@H]4C(=O)N[C@]5(C(=O)NS(=O)(=O)C6(C)CC6)C[C@H]5/C=C\CC[C@H](C)C[C@@H](C)[C@H](NC(=O)OC(C)(C)C(F)(F)F)C(=O)N4C3)nc(N3CCCC3)cc2c1 [Compound 3118, 1,1,1-trifluoro-2-methylpropan-2-yl((2R,6S,7R,9S,13aS,14aR,16aS,Z)-2-((6-methoxy-3-(pyrrolidin-1-yl)isoquinolin-1-yl)oxy)-7,9-dimethyl-14a-(((1-methylcyclopropyl)sulfonyl)carbamoyl)-5,16-dioxo-1,2,3,5,6,7,8,9,10,11,13a,14,14a,15,16,16a-hexadecahydrocyclopropa[e]pyrrolo[1,2-a][1,4]diazacyclopentadecin-6-yl)carbamate]
- EC50 [1, 5]: 4.82 to 103 nM
- EC50 [2, 6]: 4.82 to 103 nM

SMILES: CC[C@@H]1C[C@H](C)CC/C=C\[C@@H]2C[C@@]2(C(=O)NS(=O)(=O)C2(C)CC2)NC(=O)[C@@H]2C[C@@H](Oc3nccc4c(OC)cccc34)CN2C(=O)[C@H]1NC(=O)OC(C)(C)C [Compound 3024, tert-butyl ((2R,6S,7R,9R,13aS,14aR,16aS,Z)-7-ethyl-2-((5-methoxyisoquinolin-1-yl)oxy)-9-methyl-14a-(((1-methylcyclopropyl)sulfonyl)carbamoyl)-5,16-dioxo-1,2,3,5,6,7,8,9,10,11,13a,14,14a,15,16,16a-hexadecahydrocyclopropa[e]pyrrolo[1,2-a][1,4]diazacyclopentadecin-6-yl)carbamate]
- EC50 [1, 5]: < 5.46 nM
- EC50 [2, 6]: < 5.46 nM

SMILES: CC[C@@H]1C[C@H](C)CC/C=C\[C@@H]2C[C@@]2(C(=O)NS(=O)(=O)C2(C)CC2)NC(=O)[C@@H]2C[C@@H](Oc3ncc(C(=O)O)c4cc(OC)ccc34)CN2C(=O)[C@H]1NC(=O)OC(C)(C)C [Compound 4277, 1-(((2R,6S,7R,9R,13aS,14aR,16aS,Z)-6-((tert-butoxycarbonyl)amino)-7-ethyl-9-methyl-14a-(((1-methylcyclopropyl)sulfonyl)carbamoyl)-5,16-dioxo-1,2,3,5,6,7,8,9,10,11,13a,14,14a,15,16,16a-hexadecahydrocyclopropa[e]pyrrolo[1,2-a][1,4]diazacyclopentadecin-2-yl)oxy)-6-methoxyisoquinoline-4-carboxylic acid]
- EC50 [1, 7]: ≥ 1000 nM
- EC50 [1, 3]: 35 to 620 nM
- EC50 [2, 8]: 218 nM
- EC50 [2, 4]: 35 to 620 nM

SMILES: CC[C@@H]1C[C@H](C)CC/C=C\[C@@H]2C[C@@]2(C(=O)NS(=O)(=O)C2(C)CC2)NC(=O)[C@@H]2C[C@@H](Oc3ncc(Cl)c4ccc(OC)cc34)CN2C(=O)[C@H]1NC(=O)OC(C)(C)C [Compound 4381]
- EC50 [1, 3]: 1.01 to 5 nM
- EC50 [2, 4]: 0.51 to 1 nM

SMILES: CCOc1cc2cc(OC)ccc2c(O[C@@H]2C[C@H]3C(=O)N[C@]4(C(=O)NS(=O)(=O)C5(C)CC5)C[C@H]4/C=C\CC[C@H](C)C[C@@H](C)[C@H](NC(=O)OC(C)(C)C)C(=O)N3C2)n1 [Compound 3193, tert-butyl ((2R,6S,7R,9S,13aS,14aR,16aS,Z)-2-((3-ethoxy-6-methoxyisoquinolin-1-yl)oxy)-7,9-dimethyl-14a-(((1-methylcyclopropyl)sulfonyl)carbamoyl)-5,16-dioxo-1,2,3,5,6,7,8,9,10,11,13a,14,14a,15,16,16a-hexadecahydrocyclopropa[e]pyrrolo[1,2-a][1,4]diazacyclopentadecin-6-yl)carbamate]
- EC50 [1, 3]: 1.01 to 5 nM
- EC50 [2, 4]: 0.51 to 1 nM

SMILES: COc1cc2ccccc2c(O[C@@H]2C[C@H]3C(=O)N[C@]4(C(=O)NS(=O)(=O)C5(CF)CC5)C[C@H]4/C=C\CC[C@@H](C)C[C@@H](C)[C@H](NC(=O)OC(C)(C)C(C)(F)F)C(=O)N3C2)n1 [Compound 6038, 3,3-difluoro-2-methylbutan-2-yl((2R,6S,7R,9R,13aS,14aR,16aS,Z)-14a-(((1-(fluoromethyl)cyclopropyl)sulfonyl)carbamoyl)-2-((3-methoxyisoquinolin-1-yl)oxy)-7,9-dimethyl-5,16-dioxo-1,2,3,5,6,7,8,9,10,11,13a,14,14a,15,16,16a-hexadecahydrocyclopropa[e]pyrrolo[1,2-a][1,4]diazacyclopentadecin-6-yl)carbamate]
- EC50 [1, 3]: < 5.46 nM
- EC50 [2, 4]: < 5.46 nM

SMILES: [2H]C([2H])([2H])C(OC(=O)N[C@@H]1C(=O)N2C[C@H](Oc3nccc4c5c(ccc34)N(C)CCO5)C[C@H]2C(=O)N[C@]2(C(=O)NS(=O)(=O)C3(C)CC3)C[C@H]2/C=C\CC[C@H](C)C[C@H]1C)(C([2H])([2H])[2H])C(F)(F)F [Compound 5297, 1,1,1,3,3,3-hexadeutero-2-(trifluoromethyl)propan-2-yl((2R,6S,7R,9S,13aS,14aR,16aS,Z)-7,9-dimethyl-2-((4-methyl-3,4-dihydro-2H-[1,4]oxazino[2,3-f]isoquinolin-7-yl)oxy)-14a-(((1-methylcyclopropyl)sulfonyl)carbamoyl)-5,16-dioxo-1,2,3,5,6,7,8,9,10,11,13a,14,14a,15,16,16a-hexadecahydrocyclopropa[e]pyrrolo[1,2-a][1,4]diazacyclopentadecin-6-yl)carbamate]
- EC50 [1, 7]: 7.06 nM
- EC50 [1, 3]: 4.82 to 103 nM
- EC50 [2, 8]: 3.16 nM
- EC50 [2, 4]: < 5.46 nM

SMILES: COc1cc2cc(-c3ccc(OC(C)C)cc3)nc(O[C@@H]3C[C@H]4C(=O)N[C@]5(C(=O)NS(=O)(=O)C6CC6)C[C@H]5/C=C\CC[C@@H](C)C[C@@H](C)[C@H](NC(=O)OC(C)(C)C)C(=O)N4C3)c2cc1F [Compound 3182, tert-butyl ((2R,6S,7R,9R,13aS,14aR,16aS,Z)-14a-((cyclopropylsulfonyl)carbamoyl)-2-((7-fluoro-3-(4-isopropoxyphenyl)-6-methoxyisoquinolin-1-yl)oxy)-7,9-dimethyl-5,16-dioxo-1,2,3,5,6,7,8,9,10,11,13a,14,14a,15,16,16a-hexadecahydrocyclopropa[e]pyrrolo[1,2-a][1,4]diazacyclopentadecin-6-yl)carbamate]
- EC50 [1, 5]: < 5.46 nM
- EC50 [2, 6]: < 5.46 nM

SMILES: CC[C@@H]1C[C@@H](C)CC/C=C\[C@@H]2C[C@@]2(C(=O)NS(=O)(=O)C2CC2)NC(=O)[C@@H]2C[C@@H](Oc3nccc4c(OC)cccc34)CN2C(=O)[C@H]1NC(=O)OC(C)(C)C(F)(F)F [Compound 3031, 1,1,1-trifluoro-2-methylpropan-2-yl((2R,6S,7R,9S,13aS,14aR,16aS,Z)-14a-((cyclopropylsulfonyl)carbamoyl)-7-ethyl-2-((5-methoxyisoquinolin-1-yl)oxy)-9-methyl-5,16-dioxo-1,2,3,5,6,7,8,9,10,11,13a,14,14a,15,16,16a-hexadecahydrocyclopropa[e]pyrrolo[1,2-a][1,4]diazacyclopentadecin-6-yl)carbamate]
- EC50 [1, 5]: 4.82 to 103 nM
- EC50 [2, 6]: 4.82 to 103 nM

SMILES: C[C@@H]1CC/C=C\[C@@H]2C[C@@]2(C(=O)NS(=O)(=O)C2(C)CC2)NC(=O)[C@@H]2C[C@@H](Oc3ncc(N4CCOCC4)c4ccccc34)CN2C(=O)[C@@H](NC(=O)OC(C)(C)C(C)(F)F)[C@H](C)C1 [Compound 5459, 3,3-difluoro-2-methylbutan-2-yl((2R,6S,7R,9R,13aS,14aR,16aS,Z)-7,9-dimethyl-14a-(((1-methylcyclopropyl)sulfonyl)carbamoyl)-2-((4-morpholinoisoquinolin-1-yl)oxy)-5,16-dioxo-1,2,3,5,6,7,8,9,10,11,13a,14,14a,15,16,16a-hexadecahydrocyclopropa[e]pyrrolo[1,2-a][1,4]diazacyclopentadecin-6-yl)carbamate]
- EC50 [1, 3]: 1.01 to 5 nM
- EC50 [2, 4]: 1.01 to 5 nM

SMILES: COc1ccc2c(O[C@@H]3C[C@H]4C(=O)N[C@]5(C(=O)NS(=O)(=O)C6(CF)CC6)C[C@H]5/C=C\CC[C@@H](C)C[C@@H](C)[C@H](NC(=O)c5ccncc5F)C(=O)N4C3)ncc(OC)c2c1 [Compound 4171, (2R,6S,7R,9R,13aS,14aR,16aS,Z)-2-(4,6-dimethoxyisoquinolin-1-yloxy)-6-(3-fluoroisonicotinamido)-N-(1-(fluoromethyl)cyclopropylsulfonyl)-7,9-dimethyl-5,16-dioxo-1,2,3,5,6,7,8,9,10,11,13a,14,14a,15,16,16a-hexadecahydrocyclopropa[e]pyrrolo[1,2-a][1,4]diazacyclopentadecine-14a-carboxamide]
- EC50 [1, 3]: < 5.46 nM
- EC50 [2, 4]: < 5.46 nM

SMILES: C[C@@H]1CC/C=C\[C@@H]2C[C@@]2(C(=O)NS(=O)(=O)C2CC2)NC(=O)[C@@H]2C[C@@H](Oc3ncc(OC4CC4)c4c(Cl)cccc34)CN2C(=O)[C@@H](NC(=O)OC(C)(C)C(F)(F)F)[C@H](C)C1 [Compound 32]
- EC50 ([1]; GETYPE1A, HCV genotype 1a replicon luciferase assay, range class, read-out: LE_1a (EC50, range)): < 5.46 nM
- EC50 ([2]; GETYPE1B, HCV genotype 1b replicon luciferase assay, range class, read-out: LE_1b (EC50, range)): < 5.46 nM
